Assay results reported in patent US8410107B2, “N-pyridin-3-yl or N-pyrazin-2-yl carboxamides” (Hoffmann-La Roche Inc., priority 2010, dated 2013).

Experiments:
ABCA1 protein = experiment: Detection of upregulation of ABCA1 protein in cells (ApoA-I binding, high content image analysis); assay type: cell-based; conditions: THP-1 macrophage cells; for % increase of ABCA1 at 3 μM: 24 hrs with compound
Outline: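 THP-1 cells differentiated with 100 nM PMA for 68 hrs, loaded with 25 μg/ml acetylated LDL for 24 hours, then exposed to compound (0.5% DMSO) for 24 hrs. Surface ABCA1 measured by binding of AlexaFluor 647-labeled human ApoA-I (20 nM, 2 h, 37 °C) with confocal high-content imaging; EC50 from one-site dose-response fit.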

human CB1 receptor = target: T1, human CB1 receptor (Homo sapiens, UniProt P21554); experiment: CB1 receptor affinity ([3H]-CP-55,940 displacement, HEK cell membranes); assay type: binding; conditions: displacement of radioligand [3H]-CP-55,940
T1 construct: expressed in transfected cells; host or cells: human embryonic kidney (HEK) cells, Semliki Forest Virus system, membrane preparations
T1 sequence (P21554 whole entry): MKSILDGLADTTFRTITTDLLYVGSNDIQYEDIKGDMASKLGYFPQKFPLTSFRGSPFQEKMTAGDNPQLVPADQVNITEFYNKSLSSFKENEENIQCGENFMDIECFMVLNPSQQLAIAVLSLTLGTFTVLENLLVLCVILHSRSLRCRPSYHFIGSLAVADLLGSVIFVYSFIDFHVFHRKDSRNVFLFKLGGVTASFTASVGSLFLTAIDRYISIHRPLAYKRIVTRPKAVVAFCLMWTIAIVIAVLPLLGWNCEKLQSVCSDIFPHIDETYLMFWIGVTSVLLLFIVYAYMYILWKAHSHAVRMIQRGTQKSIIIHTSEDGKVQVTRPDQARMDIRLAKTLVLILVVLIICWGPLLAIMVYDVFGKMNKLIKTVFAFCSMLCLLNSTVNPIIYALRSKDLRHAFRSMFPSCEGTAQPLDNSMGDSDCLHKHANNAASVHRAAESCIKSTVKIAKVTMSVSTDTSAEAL
Outline: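 HEK cell membranes transiently expressing human CB1 (Semliki Forest Virus) incubated with [3H]-CP-55,940 and compound at 10 μM. Bound and free ligand separated by glass-fibre filtration, then scintillation counting. Reported as % inhibition of radioligand binding.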

human CB2 receptor = target: T2, human CB2 receptor (Homo sapiens, UniProt P34972); experiment: CB2 receptor affinity ([3H]-CP-55,940 displacement, HEK cell membranes); assay type: binding; conditions: displacement of radioligand [3H]-CP-55,940
T2 construct: expressed in transfected cells; host or cells: human embryonic kidney (HEK) cells, Semliki Forest Virus system, membrane preparations
T2 sequence (P34972 whole entry): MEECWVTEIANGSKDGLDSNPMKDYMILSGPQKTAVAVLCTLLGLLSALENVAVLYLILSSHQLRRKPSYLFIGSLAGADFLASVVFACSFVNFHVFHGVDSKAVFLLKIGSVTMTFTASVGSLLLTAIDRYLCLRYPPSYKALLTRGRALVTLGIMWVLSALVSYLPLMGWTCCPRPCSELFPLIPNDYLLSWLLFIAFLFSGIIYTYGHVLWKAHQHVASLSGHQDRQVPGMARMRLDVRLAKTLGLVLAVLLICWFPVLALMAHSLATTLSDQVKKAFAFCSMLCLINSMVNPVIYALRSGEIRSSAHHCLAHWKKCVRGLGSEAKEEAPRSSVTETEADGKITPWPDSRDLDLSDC
Outline: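 Membranes from HEK cells transiently expressing human CB2 via Semliki Forest Virus, incubated with [3H]-CP-55,940 ± compound; bound ligand separated by glass-fiber filtration and counted by scintillation. Reported as % inhibition of radioligand binding at 10 μM compound.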

| inhibition at 10 µM (human CB1 receptor) [%] | inhibition at 10 µM (human CB2 receptor) [%] | Structure (SMILES) | % increase of ABCA1 at 3 μM (ABCA1 protein) [% @ 3 μM] | EC50 (ABCA1 protein; ABCA1 protein increasing efficacy) [µM] |
| --- | --- | --- | --- | --- |
| 48 | 5 | COC(C)C(=O)Nc1cnc(OCC(F)(F)F)c(-c2ccc(Cl)cc2)c1 (stereo not drawn) [Example 86, N-(5-(4-chlorophenyl)-6-(2,2,2-trifluoroethoxy)pyridin-3-yl)-2-methoxy-propanamide] | >45 | – |
| 19 | -15 | CNC(=O)c1cncc(C(=O)Nc2cnc(OCC(F)(F)F)c(-c3ccc(Cl)cc3)c2)c1 [Example 87, N3-(5-(4-chlorophenyl)-6-(2,2,2-trifluoroethoxy)pyridin-3-yl)-N5-methylpyridine-3,5-dicarboxamide] | >45 | – |
| 41 | 16 | CO[C@H](C)C(=O)Nc1cnc(OCC(F)(F)F)c(-c2ccc(Cl)cc2)c1 [Example 88, (+)-N-(5-(4-chlorophenyl)-6-(2,2,2-trifluoroethoxy)pyridin-3-yl)-2-methoxypropanamide] | >45 | – |
| 35 | 5 | CO/N=C(\C)C(=O)Nc1cnc(OCC(F)(F)F)c(-c2ccc(Cl)cc2)c1 [Example 89, (E)-N-(5-(4-chlorophenyl)-6-(2,2,2-trifluoroethoxy)pyridin-3-yl)-2-(methoxyimino)propanamide] | – | 3.31 |
